Paper PMC6963856, “Increases in Hydrophilicity and Charge on the Polar Face of Alyteserin 1c Helix Change its Selectivity towards Gram-Positive Bacteria” (Antibiotics, 2019)
Where no end group is shown, it is not given here.

Columns and labels:
[1] = system: E. coli ATCC25922; format: cell-based, Escherichia coli
Description: (§1) Antimicrobial assays were performed according to the Clinical and Laboratory Standards Institute, CLSI [45] with slight modifications. A bacterial culture in Mueller Hinton broth in exponential phase was diluted in Mueller Hinton broth until reaching an OD625 of 0.1 (approximately 1 × 10^8 CFU/mL). Then, this culture was diluted once more by a factor of 1:200. Subsequently, 90 µL of bacterial culture was incubated with 10 µL of peptide to reach a final inoculum of approximately 5 × 10^5 CFU/mL. The incubation time was 18–20 h in sterile 96-well plates at 37 °C. The peptides were applied at different serial dilutions (diluted in half) from 250 μM to 0.97 μM. As a negative control, phosphate-buffered saline (PBS; 138 mM NaCl, 3 mM KCl, 1.5 mM NaH2PO4, 8.1 mM Na2HPO4, pH 7.4) was used. After incubation, bacterial growth was visualized to obtain the minimum inhibitory concentration (MIC).

[2] = system: S. typhimurium ATCC14028; format: cell-based
Description: as §1

[3] = system: B. cereus ATCC11778; format: cell-based
Description: as §1

[4] = system: L. monocytogenes ATCCbaa751; format: cell-based
Description: as §1

[5] = system: S. aureus ATCC43300 (MRSA); format: cell-based, Staphylococcus aureus
Description: as §1

[6] = system: S. aureus ATCC25923; format: cell-based, Staphylococcus aureus
Description: as §1

[7] = system: S. aureus ATCC29213 (MSSA, ampicillin-resistant); format: cell-based, Staphylococcus aureus
Description: as §1

[8] = system: human erythrocytes; conditions: cited from earlier work
Source text: A peptide of 23 amino acid residues with a net charge of +2, Alyerserin-1c (WT), was isolated for the first time from the cutaneous secretions of the Alytes obstetricans toad. […] Furthermore, the three-dimensional structure of Alyteserin-1c was characterized as an extended α-helix between Leu2 and Val21 residues. In a recent study by Aragón-Muriel et al., it was reported that the Alyteserin-1 ...

[9] = system: P. aeruginosa ATCC9027; format: cell-based
Description: as §1

GLKRIFKSGLGKLVKGISAHVAS-NH2 [ΔM]
MIC E. coli ATCC25922 [1]: 62.5 µM
MIC S. typhimurium ATCC14028 [2]: 125 µM
MIC B. cereus ATCC11778 [3]: 125 µM
MIC L. monocytogenes ATCCbaa751 [4]: 62.5 µM
MIC S. aureus ATCC43300 [5]: 250 µM
MIC S. aureus ATCC25923 [6]: 62.5 µM
MIC S. aureus ATCC29213 [7]: 250 µM

GLKEIFKAGLGSLVKGIAAHVAS-NH2 [WT, Alyteserin-1c, reference compound]
HC50 human erythrocytes [8]: 220 µM
MIC E. coli ATCC25922 [1]: 15.2 µM
MIC P. aeruginosa ATCC9027 [9]: 31.3 µM
MIC L. monocytogenes ATCCbaa751 [4]: 125 µM
MIC S. aureus ATCC25923 [6]: 250 µM
